Target: HLA-A2 on T2 cells (Homo sapiens, UniProt P04439, D140Y/D185E/D98H/E176V/E277Q/G131W/G231S/I119V/I121R/I166T/I218V/L300P/L318F/N151K/N90K/P208A/P217A/Q86G/Q94H/R138H/R169H/T345S)
Format: binding

Row | Sequence | binding of peptide to HLA-A2 on T2 cells
1 | ELRSRYWAI [NP 380-388] | some low binding capacity, which was not dose dependent
2 | LLTEVETYV [M1 3-11] | High and dose dependent binding
3 | PKYVKQNTLKLAT [HA 307-319] | some low binding capacity, which was not dose dependent
4 | SKAYSNCYPYDVPDYASL [HA 91-108 peptide] | binding capacity only at the higher (100 μM) concentration
